Assay [1] concerns Streptococcus pyogenes C203. The assay is described as follows: Standard broth micro-dilution MIC, Streptococcus pyogenes C203. In kind it is cell-based. On the procedure: (§1) The minimal inhibitory concentrations (MICs) were determined using a standard broth micro-dilution assay.
The subject of assay [2] is Staphylococcus aureus 491. In words: Standard broth micro-dilution MIC, Staphylococcus aureus 491. Format: cell-based. On the procedure:
as §1

The subject of another assay is Escherichia coli EC14. In words: Standard broth micro-dilution MIC, Escherichia coli EC14. In kind it is cell-based. On the procedure:
as §1

Assay [3] deals with Enterococcus faecalis 276. In words: Standard broth micro-dilution MIC, Enterococcus faecalis 276. In kind it is cell-based. On the procedure:
as §1
(Broth dilution looks for growth in wells or tubes with falling amounts of substance.)

Assay [4] relates to Enterococcus faecium 180-1. In words: Standard broth micro-dilution MIC, Enterococcus faecium 180-1. Format: cell-based. On the procedure: as §1
For assay [5], the system named is Staphylococcus haemolyticus 105. In words: Standard broth micro-dilution MIC, Staphylococcus haemolyticus 105. In kind it is cell-based. On the procedure: as §1
The test system of assay [6] is Staphylococcus aureus 489. In words: Standard broth micro-dilution MIC, Staphylococcus aureus 489. In kind it is cell-based. On the procedure:
as §1

The subject of assay [7] is Staphylococcus aureus 447. The assay is described as follows: Standard broth micro-dilution MIC, Staphylococcus aureus 447. In kind it is cell-based. On the procedure: as §1
The subject of assay [8] is Enterococcus gallinarum 245. The assay is described as follows: Standard broth micro-dilution MIC, Enterococcus gallinarum 245. In kind it is cell-based. On the procedure: as §1
Assay [9] concerns Staphylococcus aureus 446. In words: Standard broth micro-dilution MIC, Staphylococcus aureus 446. In kind it is cell-based. On the procedure:
as §1

In assay [10] the test system is Enterococcus faecalis 2041. The assay is described as follows: Standard broth micro-dilution MIC, Enterococcus faecalis 2041. Format: cell-based. On the procedure:
as §1

For assay [11], the system named is vancomycin-sensitive enterococci. In words: In Vitro Activity Against Enterococci, vancomycin-sensitive strains. Format: cell-based, Enterococcus faecium and Enterococcus faecalis. The conditions noted are these: representative vancomycin-sensitive enterococci (Enterococcus faecium and Enterococcus faecalis). On the procedure:
as §1

The test system of assay [12] is Staphylococcus aureus SA119913. In words: Standard broth micro-dilution MIC, Staphylococcus aureus SA119913. In kind it is cell-based. On the procedure:
as §1

The subject of assay [13] is Staphylococcus aureus X400. The assay is described as follows: Standard broth micro-dilution MIC, Staphylococcus aureus X400. Format: cell-based. On the procedure:
as §1

For assay [14], the system named is Staphylococcus haemolyticus 415. The assay is described as follows: Standard broth micro-dilution MIC, Staphylococcus haemolyticus 415. In kind it is cell-based. On the procedure: as §1
Assay [15] has as its system Staphylococcus aureus S13E. Format: cell-based. On the procedure: as §1
The subject of assay [16] is Staphylococcus aureus X778. In words: Standard broth micro-dilution MIC, Staphylococcus aureus X778. In kind it is cell-based. On the procedure:
as §1

The subject of assay [17] is Staphylococcus aureus SA1199A. The assay is described as follows: Standard broth micro-dilution MIC, Staphylococcus aureus SA1199A. Format: cell-based. On the procedure:
as §1

The next assay has as its system Enterococcus faecium 180. In words: Standard broth micro-dilution MIC, Enterococcus faecium 180. In kind it is cell-based. On the procedure: as §1
Assay [18] deals with Staphylococcus epidermidis 270. The assay is described as follows: Standard broth micro-dilution MIC, Staphylococcus epidermidis 270. In kind it is cell-based. On the procedure: as §1
Assay [19] deals with Staphylococcus aureus SA1199. The assay is described as follows: Standard broth micro-dilution MIC, Staphylococcus aureus SA1199. Format: cell-based. On the procedure: as §1
Assay [20] deals with Streptococcus pneumoniae P1. The assay is described as follows: Standard broth micro-dilution MIC, Streptococcus pneumoniae P1. Format: cell-based. On the procedure:
as §1

The test system of assay [21] is Haemophilus influenzae RD. In words: Standard broth micro-dilution MIC, Haemophilus influenzae RD. Format: cell-based. On the procedure: as §1
Assay [22] has as its system vancomycin-resistant enterococci. The assay is described as follows: In Vitro Activity Against Enterococci, vancomycin-resistant strains. Format: cell-based. The note with it: representative vancomycin-resistant enterococci (Enterococcus faecium and Enterococcus faecalis). On the procedure:
as §1

On to “1,3-propanediyl-bis-[(oxy-4,1-phenylene)-methylene]-bis-[A82846B] [Compound 14]”, for which the MIC is 0.06 µg/mL in assay [1]; 0.25 µg/mL in assay [2]; more than 64 µg/mL against Escherichia coli EC14; 0.5 µg/mL in [3]; not above 0.06 µg/mL in assay [4]; 4 µg/mL in [5]. Further, the MIC in [6] came to 1 µg/mL; in assay [7], 16 µg/mL; in [8] it was 0.06 µg/mL; in assay [9], 4 µg/mL; in assay [10], 0.25 µg/mL; in assay [12] it was 2 µg/mL. Also, the MIC in assay [13] came to 2 µg/mL; in assay [14] it was 16 µg/mL; in assay [15], 2 µg/mL; in assay [16], 1 µg/mL; in assay [17], 0.125 µg/mL; with Enterococcus faecium 180 it was 0.25 µg/mL. The MIC in assay [18] was 8 µg/mL; in assay [19], 4 µg/mL; in [20], 0.06 µg/mL; in assay [21], more than 64 µg/mL. Besides, the “mean geometric MIC, Vancomycin Sensitive Strains” value in assay [11] came to 1.0 µg/mL. Further, the “mean geometric MIC, Vancomycin Resistant Strains” value in assay [22] is more than 64 µg/mL.

As for “N^4 -(4-(2-(2-(2-(p-formyl-phenoxy)ethoxy)ethoxy)ethoxy)benzyl)A82846B [Compound 43]”, the MIC is 0.06 µg/mL in assay [1]; 0.5 µg/mL in assay [2]; more than 64 µg/mL against Escherichia coli EC14; 1 µg/mL in assay [3]; 0.5 µg/mL in assay [4]; 1 µg/mL in assay [5]. The MIC in assay [6] was 1 µg/mL; in assay [7], 4 µg/mL; in [8], 0.5 µg/mL; in assay [9] it was 2 µg/mL; in assay [10], 1 µg/mL; in assay [12] it was 4 µg/mL. Also, the MIC in assay [13] worked out at 2 µg/mL; in assay [14], 8 µg/mL; in [15] it was 2 µg/mL; in [16], 2 µg/mL; in [17], 0.5 µg/mL; in the assay with Enterococcus faecium 180 it was 8 µg/mL. Besides, the MIC is 4 µg/mL in [18], 2 µg/mL in assay [19], 0.06 µg/mL in [20] and more than 64 µg/mL in assay [21]. For the same substance, the “mean geometric MIC, Vancomycin Sensitive Strains” value in assay [11] came out at 4.6 µg/mL. Moreover, in assay [22], the “mean geometric MIC, Vancomycin Resistant Strains” value is more than 128 µg/mL.

“N^4 -(4-(2-(4-(2-(p-formyl-phenoxy)ethoxycarbonyl)benzoyl-oxy)ethoxy)benzyl)vancomycin [Compound 44]”: the MIC is 0.06 µg/mL in assay [1]; not above 0.06 µg/mL in assay [2]; more than 64 µg/mL with Escherichia coli EC14; not above 0.06 µg/mL in assay [3]; not above 0.06 µg/mL in assay [4]; 0.25 µg/mL in assay [5]. Besides, the MIC is 0.125 µg/mL in assay [6]; 0.125 µg/mL in [7]; 0.25 µg/mL in assay [8]; 0.125 µg/mL in assay [9]; not above 0.06 µg/mL in [10]; not above 0.06 µg/mL in assay [12]. Further, the MIC in [13] is not above 0.06 µg/mL; in [14], 2 µg/mL; in assay [15], not above 0.06 µg/mL; in [16] it was not above 0.06 µg/mL; in assay [17], not above 0.06 µg/mL; against Enterococcus faecium 180 it was 4 µg/mL. Besides, the MIC in assay [18] was 0.25 µg/mL; in assay [19], not above 0.06 µg/mL; in assay [20], 0.06 µg/mL; in assay [21], more than 64 µg/mL. For the same substance, in [11], the “mean geometric MIC, Vancomycin Sensitive Strains” value turned out to be 0.66 µg/mL. The “mean geometric MIC, Vancomycin Resistant Strains” value in assay [22] was 76 µg/mL.

With “N^4 -(4-(3-(p-formylphenoxy)-n-propyloxy)benzyl)A82846B [Compound 46]”, the MIC is not above 0.06 µg/mL in [1]; 0.5 µg/mL in [2]; more than 64 µg/mL against Escherichia coli EC14; 1 µg/mL in assay [3]; not above 0.06 µg/mL in assay [4]; 2 µg/mL in assay [5]. Moreover, the MIC was 0.5 µg/mL in assay [6]; 2 µg/mL in assay [7]; 4 µg/mL in [8]; 1 µg/mL in [9]; not above 0.06 µg/mL in assay [10]; 1 µg/mL in assay [12]. The MIC was 1 µg/mL in [13]; 4 µg/mL in assay [14]; 0.5 µg/mL in assay [15]; 0.5 µg/mL in assay [16]; 0.125 µg/mL in assay [17]; 0.5 µg/mL in the assay with Enterococcus faecium 180. The figures for the MIC in [18], in assay [19] and in [20] were 2 µg/mL, 1 µg/mL and not above 0.06 µg/mL, respectively. In addition, in assay [11], the “mean geometric MIC, Vancomycin Sensitive Strains” value worked out at 0.17 µg/mL. The “mean geometric MIC, Vancomycin Resistant Strains” value in assay [22] was determined as 4.8 µg/mL.

On to “N^4 -(4-(8-(p-formylphenoxy)-n-octyloxy)benzyl)A82846B [Compound 47]”, for which the MIC in assay [1] is not above 0.06 µg/mL; in assay [2], 16 µg/mL; with Escherichia coli EC14 it was more than 64 µg/mL; in [3] it was 8 µg/mL; in assay [4] it was 1 µg/mL; in assay [5], 8 µg/mL. Further, the MIC turned out to be 4 µg/mL in assay [6]; 8 µg/mL in assay [7]; 16 µg/mL in assay [8]; 8 µg/mL in assay [9]; 2 µg/mL in assay [10]; 8 µg/mL in [12]. Besides, the MIC in [13] turned out to be 8 µg/mL; in [14], 16 µg/mL; in [15], 16 µg/mL; in [16], 8 µg/mL; in [17], 0.5 µg/mL; in the assay on Enterococcus faecium 180, 0.5 µg/mL. The MIC in [18] was 4 µg/mL; in [19] it was 16 µg/mL; in assay [20], not above 0.06 µg/mL; in assay [21], more than 64 µg/mL. Also, in assay [11], the “mean geometric MIC, Vancomycin Sensitive Strains” value worked out at 1.0 µg/mL. The “mean geometric MIC, Vancomycin Resistant Strains” value in [22] was determined as 2.8 µg/mL.

In the case of “N^4 -(4-(12-(p-formylphenoxy)-n-dodecyloxy)benzyl)A82846B [Compound 48]”, the MIC was 2 µg/mL in assay [1]; 32 µg/mL in [2]; more than 64 µg/mL against Escherichia coli EC14; 32 µg/mL in assay [3]; 8 µg/mL in [4]; more than 64 µg/mL in [5]. Moreover, the MIC in assay [6] was 32 µg/mL; in [7] it was more than 64 µg/mL; in assay [8] it was more than 64 µg/mL; in assay [9], more than 64 µg/mL; in assay [10], 8 µg/mL; in assay [12], 32 µg/mL. The MIC was 32 µg/mL in assay [13]; more than 64 µg/mL in [14]; 32 µg/mL in assay [15]; 32 µg/mL in assay [16]; 16 µg/mL in [17]; 64 µg/mL against Enterococcus faecium 180. Besides, the MIC in assay [18] is more than 64 µg/mL; in [19], 32 µg/mL; in [20], 4 µg/mL; in assay [21], more than 64 µg/mL. The “mean geometric MIC, Vancomycin Sensitive Strains” value in assay [11] amounted to 5.2 µg/mL. Also, the “mean geometric MIC, Vancomycin Resistant Strains” value in assay [22] amounted to 8.0 µg/mL.

Turning to “N^4 -(4-(12-(p-formylphenoxy)-n-dodecyloxy)benzyl)vancomycin [Compound 42]”, the MIC in assay [1] is 0.25 µg/mL; in assay [2], 2 µg/mL; against Escherichia coli EC14, more than 64 µg/mL; in [3], 4 µg/mL; in assay [4], 1 µg/mL; in assay [5] it was 2 µg/mL. Also, the MIC in assay [6] was 2 µg/mL; in assay [7], 4 µg/mL; in [8] it was 1 µg/mL; in assay [9], 2 µg/mL; in [10], 2 µg/mL; in assay [12], 4 µg/mL. For the same substance, the MIC in assay [13] was 2 µg/mL; in assay [14] it was 8 µg/mL; in [15], 4 µg/mL; in assay [16] it was 1 µg/mL; in [17] it was 1 µg/mL; in the assay on Enterococcus faecium 180, 0.5 µg/mL. For the same substance, the MIC is 4 µg/mL in assay [18], 2 µg/mL in assay [19] and 1 µg/mL in assay [20]. In addition, in assay [11], the “mean geometric MIC, Vancomycin Sensitive Strains” value worked out at 1.1 µg/mL. In [22], the “mean geometric MIC, Vancomycin Resistant Strains” value turned out to be 4.5 µg/mL.

The record behind these values is patent US6037447A, “Glycopeptide compounds” (priority 1998, dated 2000).
